Values joined by “and” are separate entries in the source; they are usually repeats but may differ in a detail not shown here. Equal values may be shown once. “Also recorded” adds a separate entry of the source. Read-outs that look alike come from different tables or passages of the source. Values belong to the compound of their own block, whether it stands above or below them.
Columns and labels:
MER = biological target: T1, MER (Homo sapiens, UniProt Q12866); assay: MER enzyme inhibition assay (in-house Kinase-Glo); type: biochemical
T1 construct: A purified kinase (MER or AXL) was incubated with a compound or DMSO
T1 sequence (Q12866 21-999): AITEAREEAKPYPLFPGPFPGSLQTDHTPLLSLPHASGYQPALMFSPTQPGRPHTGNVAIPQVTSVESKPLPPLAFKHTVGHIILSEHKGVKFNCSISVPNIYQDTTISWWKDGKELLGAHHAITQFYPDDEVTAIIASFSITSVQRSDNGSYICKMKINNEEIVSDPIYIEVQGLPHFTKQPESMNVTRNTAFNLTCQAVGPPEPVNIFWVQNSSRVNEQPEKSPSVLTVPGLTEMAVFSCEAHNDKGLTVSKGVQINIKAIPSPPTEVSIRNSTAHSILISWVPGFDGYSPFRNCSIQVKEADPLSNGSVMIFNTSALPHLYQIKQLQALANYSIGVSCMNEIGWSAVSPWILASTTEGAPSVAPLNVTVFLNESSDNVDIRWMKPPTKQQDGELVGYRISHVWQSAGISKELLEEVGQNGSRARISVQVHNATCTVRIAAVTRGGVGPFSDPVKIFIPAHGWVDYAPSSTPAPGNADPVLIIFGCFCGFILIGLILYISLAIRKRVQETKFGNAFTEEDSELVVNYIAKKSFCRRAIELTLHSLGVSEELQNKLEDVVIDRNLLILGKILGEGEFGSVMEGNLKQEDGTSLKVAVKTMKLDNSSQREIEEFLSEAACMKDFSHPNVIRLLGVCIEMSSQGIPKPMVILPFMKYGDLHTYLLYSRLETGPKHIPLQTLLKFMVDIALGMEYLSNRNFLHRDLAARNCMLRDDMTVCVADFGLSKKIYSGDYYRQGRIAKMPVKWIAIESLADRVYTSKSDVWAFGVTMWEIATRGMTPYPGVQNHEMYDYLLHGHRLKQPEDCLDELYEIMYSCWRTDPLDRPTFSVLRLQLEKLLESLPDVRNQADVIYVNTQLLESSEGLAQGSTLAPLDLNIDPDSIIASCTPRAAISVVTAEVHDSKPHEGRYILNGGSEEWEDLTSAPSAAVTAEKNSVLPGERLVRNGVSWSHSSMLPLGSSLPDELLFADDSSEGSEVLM

MC38 murine colon tumor = assay: MC38 syngeneic tumor model; type: in vivo, mice
Procedure: (§1) All mice were used between 6 and 7 weeks of age. […] Tumor cells were detected as free of Mycoplasma spp prior to injection into animals. […] Tumor growth was measured with an electronic caliper, and volumes were calculated as L × W × W/2. Tumor size and animal body weight were measured once a week after tumor cell inoculation. Tumor growth inhibition (% TGI) = [1 – ΔT/ΔC] × 100, where ΔT is the difference of average tumor volume on the measured day and day 0 of treated groups and ΔC is the difference of average tumor volume on the measured day and day 0 of control groups.

[1] = tested on: 4T1 murine triple-negative breast tumors; assay: 4T1 syngeneic tumor model; type: in vivo, mice; conditions: 50 mg/kg QD, FOTO
Procedure: as §1

[2] = tested on: Hepa1–6 murine liver tumors; assay: Hepa1–6 tumor model; type: in vivo, mice; conditions: 30 mg/kg orally QD, FOTO
Procedure: as §1

[3] = tested on: MDA-MB-231 human triple-negative breast xenograft tumors; assay: MDA-MB-231 xenograft tumor model; conditions: 50 mg/kg QD, FOTO
Procedure: as §1

[4] = In vivo pharmacokinetics study; conditions: mice; for clearance at 24 h / half-life at 24 h / Vd at 24 h / bioavailability at 24 h / Tmax at 24 h: male, ICR, mouse, plasma; for clearance at 24 h: read-out: iv CL; for Vd at 24 h: read-out: iv Vss; for iv DNAUC(0–inf) / po DNAUC(0–inf) / po DNCmax: dose-normalized
Procedure: The animal studies were performed according to NHRI institutional animal care and committee-approved procedures. Male ICR mice (25–35 g) were obtained from BioLASCO (Taiwan Co., Ltd., Ilan, Taiwan). […] All samples were analyzed for the parent drug by LC-MS/MS. Plasma concentration data were analyzed with a noncompartmental method.

AXL = biological target: T2, AXL (Homo sapiens, UniProt P30530); assay: AXL enzyme inhibition assay (ADP-Glo); type: biochemical
T2 construct: A purified kinase (MER or AXL) was incubated with a compound or DMSO
T2 sequence (P30530 26-894): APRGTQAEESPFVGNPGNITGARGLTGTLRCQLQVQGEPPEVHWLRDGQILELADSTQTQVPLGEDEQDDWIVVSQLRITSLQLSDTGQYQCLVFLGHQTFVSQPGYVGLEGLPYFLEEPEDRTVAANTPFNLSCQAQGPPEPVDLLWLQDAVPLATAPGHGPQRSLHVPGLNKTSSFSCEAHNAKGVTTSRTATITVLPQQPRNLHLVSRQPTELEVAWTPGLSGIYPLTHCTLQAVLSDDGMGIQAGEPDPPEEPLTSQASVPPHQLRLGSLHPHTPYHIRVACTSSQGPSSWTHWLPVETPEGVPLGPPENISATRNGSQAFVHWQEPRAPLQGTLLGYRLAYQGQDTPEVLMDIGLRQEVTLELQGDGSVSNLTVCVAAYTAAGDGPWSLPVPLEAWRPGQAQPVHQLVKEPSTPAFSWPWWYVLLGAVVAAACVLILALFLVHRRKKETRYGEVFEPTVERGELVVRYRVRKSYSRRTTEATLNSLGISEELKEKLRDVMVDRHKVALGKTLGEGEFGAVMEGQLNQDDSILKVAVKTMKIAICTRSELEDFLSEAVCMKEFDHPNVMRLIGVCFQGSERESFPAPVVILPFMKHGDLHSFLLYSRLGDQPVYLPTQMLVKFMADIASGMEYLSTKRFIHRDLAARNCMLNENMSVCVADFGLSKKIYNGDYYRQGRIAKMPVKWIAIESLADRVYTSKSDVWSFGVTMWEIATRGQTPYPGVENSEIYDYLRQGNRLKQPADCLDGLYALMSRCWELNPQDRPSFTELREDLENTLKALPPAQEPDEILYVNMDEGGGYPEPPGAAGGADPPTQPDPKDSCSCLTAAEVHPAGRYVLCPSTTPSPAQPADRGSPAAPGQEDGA

Ba/F3-MER cells = assay: Cell viability assay (MTS); type: cell-based; conditions: 72 h
[5] = In vitro microsomal stability assay; type: in vitro ADME; conditions: 1 μM, mouse liver microsomes, percent remaining at 30 min
Procedure: All incubations were initiated with the addition of NADPH-generating system at 37 °C for 30 min. At 0 and the end of incubation, 100 μL of aliquots were taken from the incubation mixture and placed into centrifuge tubes containing 100 μL of ice-cold acetonitrile to terminate the metabolic reaction. The samples were vortexed and centrifuged, and then, the supernatant injected onto LC/MS. Percent of remaining of each compound was calculated by comparing peak areas at 30 min to that at the initiation of incubation.

IC50 (MER): 0.0098 µM
Structure (SMILES): COc1cc2nccc(Oc3ccc(NC(=O)c4cc5c(n(-c6ccccc6)c4=O)CCCC5=O)nc3)c2cc1OC [Compound 8, tamnorzatinib]
TGI, % of Vehicle Control (MC38 murine colon tumor; 50 mg/kg orally QD, FOTO): 45% and 44.8 ± 4.6%
TGI, % of Vehicle Control [1]: 12% and 12.2 ± 3.7%
TGI, % of Vehicle Control [2]: 17% and 16.7 ± 12.0%
TGI, % of Vehicle Control [3]: 9% and 8.7 ± 4.7%

clearance at 24 h ([4]; iv 3 mg/kg): 2.9 mL/min/kg
half-life at 24 h ([4]; iv 3 mg/kg, read-out: iv T1/2 (converted)): 6 h
Vd at 24 h ([4]; iv 3 mg/kg): 1.2 L/kg
bioavailability at 24 h ([4]; iv and po 3 mg/kg): 19.2%
Tmax at 24 h ([4]; po 3 mg/kg): 4 h
half-life at 24 h ([4]; po 3 mg/kg, read-out: po T1/2 (converted)): 3.4 h
iv DNAUC(0–inf) ([4]; iv 3 mg/kg): 3,985.3 ng × hr/mL
po DNAUC(0–inf) ([4]; po 3 mg/kg): 764.0 ng·h/mL
po DNCmax ([4]; po 3 mg/kg): 38.7 ng/mL
Structure (SMILES): Cn1cc(-c2oc3ncnc(Oc4ccc(NC(=O)c5cccn(-c6ccc(F)cc6)c5=O)cc4)c3c2-c2cccc(N)c2)cn1 [Compound 22, N-(4-{[5-(3-Aminophenyl)-6-(1-methyl-1H-pyrazol-4-yl)furo[2,3-d]pyrimidin-4-yl]oxy}phenyl)-1-(4-fluorophenyl)-2-oxo-1,2-dihydropyridine-3-carboxamide]
body weight during treatment (MC38 murine colon tumor; MC38 tumor-bearing mice, 25-50 mg/kg orally, 3 weeks): No significant body weight loss; also recorded: well-tolerated without significant body weight loss

IC50 (MER): 0.0142 µM
IC50 (AXL): 0.0111 µM
IC50 (Ba/F3-MER cells): 0.0075 µM
bioavailability at 24 h ([4]; iv 2 mg/kg, po 10 mg/kg): 14.8%
clearance at 24 h ([4]; iv 2 mg/kg): 87.1 mL/min/kg
half-life at 24 h ([4]; iv 2 mg/kg, read-out: iv T1/2 (converted)): 2.4 h
Vd at 24 h ([4]; iv 2 mg/kg): 7.4 L/kg
Tmax at 24 h ([4]; po 10 mg/kg): 2.7 h
half-life at 24 h ([4]; po 10 mg/kg, read-out: po T1/2 (converted)): 4.3 h
iv DNAUC(0–inf) ([4]; iv 2 mg/kg): 221.0 ng·h/mL
po DNAUC(0–inf) ([4]; po 10 mg/kg): 32.8 ng·h/mL
po DNCmax ([4]; po 10 mg/kg): 4.5 ng/mL
Microsomal stability @ 30 min [5]: 59%
Structure (SMILES): CN1CCN(c2cccc(-c3c(-c4cnn(C)c4)oc4ncnc(Oc5ccc(NC(=O)c6cccn(-c7ccc(F)cc7)c6=O)cc5)c34)c2)CC1 [Compound 35, 1-(4-Fluorophenyl)-N-[4-({5-[3-(4-methylpiperazin-1-yl)phenyl]-6-(1-methyl-1H-pyrazol-4-yl)furo[2,3-d]pyrimidin-4-yl}oxy)phenyl]-2-oxo-1,2-dihydropyridine-3-carboxamide]

From paper PMC11247487, “Discovery of Dual MER/AXL Kinase Inhibitors as Bifunctional Small Molecules for Inhibiting Tumor Growth and Enhancing Tumor Immune Microenvironment” (Journal of Medicinal Chemistry, 2024)
